Test results: patent US10261017B2, “Methods for detecting and categorizing skin sensitizers” (University of Mississippi, priority 2014, dated 2019)
Read-outs that look alike come from different tables or passages of the source. Marks after values point to notes of the source that are not given here.

How the values were obtained:
thiol peptide [1] = assay: Cys-DPRA (Direct Peptide Reactivity Assay), literature data; conditions: for Cys-DPRA binary classification: FN: false negative; for Cys-DPRA binary classification: FP: false positive; for Cys-DPRA binary classification: TN: true negative; for Cys-DPRA binary classification: TP: true positive
[2] = test system: ARE-dependent gene activity in a recombinant cell line; conditions: cited from earlier work
[3] = Microplate spectrophotometric method (DCYA assay), fluorescence end-point; conditions: for DCYA binary classification: FN: false negative; for DCYA binary classification: FP: false positive; for DCYA assay reactivity / classification in words: microplate spectrophotometric method; for DCYA binary classification: TN: true negative; for DCYA binary classification: TP: true positive, positive if 100-RI <95; for DCYA 100-RI: RI = reactivity index, 2 equiv. electrophile, pH 10 buffer
thiol peptide [4] = conditions: cited from earlier work; for Cys-DPRA % Pept. remain.: reported results from the literature
[5] = cited from earlier work; for LLNA EC3: reported results (Table 7); for LLNA (EC3): effective concentration, published literature (Table 1); for LLNA Classification: published literature
[6] = NMR method: depletion of electrophile signal on reaction with DCYA
Description: The described example can be applied to pure chemicals and mixtures. The method includes the acquisition of at least one NMR spectrum, mixing an electrophile and a nucleophile to acquire an array of control spectra and an addition of catalyst to record an array of reaction spectra. It also includes the quantification of at least one signal and the comparison of the signal with a control and the classification of the reaction based on the depletion of potential sensitizer based on the quantified residual signal.
2,5-Dimethylfuran was used as internal standard. When necessary, characterization of the product(s) formed during the reaction(s) was performed by homonuclear ^1H connectivities using 2D-COSY experiments. […] Two- and three bond ^1H-^13C connectivities were determined by gradient-HMBC experiments in which the evolution period for long-range ^1H-^13C coupling constants was optimized for a ^2,3JC,H of 8 Hz. Through-space ^1H connectivities were determined using a NOESY experiment with a mixing time of 0.450 s. […] Toronto, Canada].
In a 3 mm NMR tube, 1 volume of DCYA (100) mM in CDCl3) was mixed with one volume of sensitizer (100 mM in CDCl3) to give a final concentration of 50 mM for both DCYA and the sensitizer. Control ^1H NMR spectra (reference spectra) were recorded at regular intervals of for a minimum of 5 min. […] All spectra were recorded at constant temperature. All experiments were conducted using the manufacturer's standard presaturation pulse programs and experimental conditions were chosen as explained in NMR spectroscopy section. The progress of the reaction was followed by the diminished peak areas of the resonances for the signal of interest. The spectra were phased, referenced, and integrated using NMR data elaboration software. The structural characterizations of the resulting adducts were confirmed by conducting additional 2D-NMR experiments when necessary.
Covalent reaction of DCYA with carvone is dependent on the activation of the nucleophilic group (ex. sulfhydryl group to the reactive thio-anion) under basic conditions. This reaction is strongly dependent on the nature of the nucleophile and may be modulated by careful choice of the model nucleophile and the reaction conditions.
The control spectra are used as reference spectra (FIG. 3A). All the spectra were subjected to automatic phase and baseline correction using a Bernstein polynomial fit (order 3). After these two steps, all the spectra were integrated over the areas of interest. […] Both vinylic and adduct peak areas were normalized relative to the internal standard signal peaks. […] The concentrations of both electrophile and adduct were then plotted as percentage against time (in minutes). (FIG. 5).

[7] = based on depletion of electrophile signal at 30 min
[8] = conversion of test chemical at 90 min, 1 equiv. DCYA, 0.1 equiv. DBN, CDCl3

SMILES | Cys-DPRA binary classification: TP (thiol peptide [1]) | DCYA binary classification: FN [3] | DCYA binary classification: FP [3] | DCYA binary classification: TN [3] | DCYA binary classification: TP [3] | DCYA 100-RI [3] | Cys-DPRA binary classification: FN (thiol peptide [1]) | Cys-DPRA binary classification: FP (thiol peptide [1]) | Cys-DPRA binary classification: TN (thiol peptide [1]) | KeratinoSens ™ EC3 ([2]; reported results (Table 7)) [µM] | further results
CCCCBr [1-Bromobutane] | 0 | 0 | 0 | 1 | 0 | – | 0 | 1 | 0 | >2000 | DCYA adduct after long incubation ([3]; after 24 h of incubation): minor DCYA adduct; DCYA assay reactivity / classification in words [3]: non-reactive; Cys-DPRA reactivity in words (thiol peptide [4]; literature): minimal reaction
O=[N+]([O-])c1ccc(Cl)c([N+](=O)[O-])c1 [1-Chloro-2,4-dinitrobenzene] | 1 | 1 | 0 | 0 | 0 | – | 0 | 0 | 0 | 3.89 | Cys-DPRA % Pept. remain. (thiol peptide [4]): 0%
C=C1C(=O)O[C@@H]2/C=C(/C)[C@H](O)C[C@@H](O)C(=C)C[C@H](OC(=O)/C(C)=C\C)[C@@H]12 [3 epi-hydroxyisonobilin] | – | – | – | – | – | – | – | – | – | – | DCYA assay reactivity / classification in words [3]: highly reactive
CC=CC(=O)CC [4-Hex-3-en-one] | – | 0 | 0 | 0 | 1 | 2.8 | 0 | 0 | 0 | – | LLNA EC3 [5]: 4.2%
Nc1ccccc1 [Aniline] | – | – | – | – | – | – | – | – | – | >2000 | Cys-DPRA % Pept. remain. (thiol peptide [4]): 100%
O=Cc1ccccc1 [Benzaldehyde] | 0 | 0 | 0 | 1 | 0 | 98.1 | 0 | 1 | 0 | – | –
COc1cc(/C=C/C(=O)CC(=O)/C=C/c2ccc(O)c(OC)c2)ccc1O [Curcumin] | – | – | – | – | – | – | – | – | – | – | Conversion at t30 (depletion of electrophile signal) ([6]; at 30 min, only one equivalent of DCYA, curcumin in DMSO-d6): 17^# %; Conversion at t30 (depletion of electrophile signal) ([6]; at 30 min, two equivalents of DCYA, curcumin in DMSO-d6): 43* %; NMR Method conversion ([6]; at 90 min, one equivalent of DCYA, DMSO-d6): 18%; NMR Method conversion ([6]; at 90 min, two equivalents of DCYA, DMSO-d6): 43%
CC(C)=CCCC(C)=CCCC(C)=CC=O [Farnesal] | 1 | – | – | – | – | – | 0 | 0 | 0 | >2000 | Cys-DPRA % Pept. remain. (thiol peptide [4]): 83.6%
C=C(C)[C@@H]1CCC2=CC(=O)C[C@@H](C)[C@]2(C)C1 [Nootkatone] | – | – | – | – | – | – | – | – | – | – | Conversion at t30 (depletion of electrophile signal) ([6]; at 30 min, 1 equiv. DCYA): 0%; NMR Classification [6, 7]: Non; NMR Method conversion [6, 8]: 0%
O=C1CCO1 [Propionolactone] | – | 0 | 0 | 0 | 1 | – | 0 | 0 | 0 | – | –
CC1=C(C=O)C(C)(C)CC=C1 [Safranal] | 1 | 0 | 0 | 0 | 1 | 82.9 | 0 | 0 | 0 | – | NMR assay reactivity / classification in words [6]: less reactive by NMR in the short time frame; Conversion at t30 (depletion of electrophile signal) ([6]; at 30 min, 1 equiv. DCYA): 3%; NMR Classification [6, 7]: Non; NMR Method conversion [6, 8]: 4%; LLNA (EC3) [5]: 7.5%; LLNA Classification [5]: Moderate; LLNA EC3 [5]: 7.5%; Cys-DPRA, percentage of thiol peptide depleted (thiol peptide [4]; adopted from the literature): 90.5^15%; Cys-DPRA % Pept. remain. (thiol peptide [4]): 9.5%
C=C1CC(OC(=O)/C(C)=C/C)C2C(=C)C(=O)OC2/C=C(\C)C(O)CC1O (stereo not drawn) [hydroxyiso-nobilin, hydroxyisonobilin] | – | – | – | – | – | – | – | – | – | – | DCYA assay reactivity / classification in words [3]: highly reactive

More lines, main results first:

Cys-DPRA binary classification: TP (thiol peptide [1]) | DCYA binary classification: FN [3] | DCYA binary classification: FP [3] | DCYA binary classification: TN [3] | DCYA binary classification: TP [3] | DCYA 100-RI [3] | SMILES | Cys-DPRA binary classification: FN (thiol peptide [1]) | Cys-DPRA binary classification: FP (thiol peptide [1]) | Cys-DPRA binary classification: TN (thiol peptide [1]) | KeratinoSens ™ EC3 ([2]; reported results (Table 7)) [µM] | further results
1 | 0 | 0 | 0 | 1 | 90.3 | CC(=O)C(=O)CC(C)C [5-Methyl-2,3-hexanedione] | 0 | 0 | 0 | 332.21 | Cys-DPRA % Pept. remain. (thiol peptide [4]): 74.2%
0 | 0 | 0 | 1 | 0 | 110.6 | O=C(OCc1ccccc1)c1ccccc1 [Benzyl benzoate] | 0 | 0 | 1 | – | –
1 | 0 | 0 | 0 | 1 | 88.8 | CC(C)=CCCC(C)=CC=O [Citral] | 0 | 0 | 0 | 67.36 | NMR assay reactivity / classification in words [6]: moderate/low electrophilic behavior; Conversion at t30 (depletion of electrophile signal) ([6]; 30 min, 50 mM): 29%; NMR Method conversion ([6]; 90 min, 50 mM): 29%; NMR Classification [6, 7]: Weak-moderate; KeratinoSens ™ EC3 ([2]; published literature (Table 1)): 67.36 µM; LLNA (EC3) [5]: 9.2%; LLNA Classification [5]: Moderate; LLNA EC3 [5]: 9.2%
0 | 0 | 0 | 1 | 0 | 100.1 | CC(O)C(=O)O (stereo not drawn) [Lactic acid] | 0 | 0 | 1 | >2000 | –
0 | 0 | 1 | 0 | 0 | 89.4 | O=C(O)C(=O)O [Oxalic acid] | 0 | 0 | 1 | – | –
– | – | – | – | – | 103.5 | Oc1cccc(O)c1 [Resorcinol] | – | – | – | – | DCYA assay reactivity / classification in words [3]: non-reactive
0 | 0 | 0 | 1 | 0 | 106.9 | O=C(O)c1ccccc1O [Salicylic acid] | 0 | 0 | 1 | >2000 | –
0 | 0 | 0 | 1 | 0 | 100.7 | O=C(O)C(O)C(O)C(=O)O (stereo not drawn) [Tartaric acid] | 0 | 0 | 1 | – | –
– | – | – | – | – | 18.2 | CC/C=C/C=O [t-2-Pentenal, trans-2-Pentenal] | – | – | – | – | NMR Classification [6]: Strong; Conversion at t30 (depletion of electrophile signal) ([6]; 30 min, 50 mM): 80%; NMR Method conversion ([6]; 90 min, 50 mM): 80%; DCYA assay reactivity / classification in words [3]: moderate reactive
